In PMC8287927, “Evidence for a chromosome origin unwinding system broadly conserved in bacteria” (Nucleic Acids Research, 2021):

Target: T1, B. subtilis DnaA (Bacillus subtilis, UniProt P05648)
T1 construct: full-length, cloned in pSP015 with His14-SUMO-FLAG3 tag; His14-SUMO cleaved (FLAG3 kept where present); E. coli BL21(DE3)-pLysS
Experiment: competition with TNP-ATP fluorescence
Settings: pH 8, 5 mM magnesium acetate, 25 C; competitive with TNP-ATP, nucleotide binding pocket

T1 sequence (P05648 whole entry): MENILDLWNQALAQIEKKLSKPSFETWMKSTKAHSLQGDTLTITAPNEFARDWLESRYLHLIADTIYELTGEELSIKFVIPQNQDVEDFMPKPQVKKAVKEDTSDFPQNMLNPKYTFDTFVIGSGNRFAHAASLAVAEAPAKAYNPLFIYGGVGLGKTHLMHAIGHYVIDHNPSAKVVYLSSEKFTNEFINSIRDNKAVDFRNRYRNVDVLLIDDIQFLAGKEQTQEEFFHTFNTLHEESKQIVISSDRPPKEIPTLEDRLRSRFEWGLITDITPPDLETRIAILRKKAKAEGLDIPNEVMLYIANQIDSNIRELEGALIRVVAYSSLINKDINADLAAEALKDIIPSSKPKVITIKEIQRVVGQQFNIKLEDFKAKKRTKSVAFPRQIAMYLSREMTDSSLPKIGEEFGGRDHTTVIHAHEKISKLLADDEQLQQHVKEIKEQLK

Nc1ncnc2c1ncn2[C@@H]1O[C@H](COP(=O)(O)OP(=O)(O)OP(=O)(O)O)[C@@H](O)[C@H]1O [ATP]
competition with TNP-ATP fluorescence: can be competed away by addition of unlabelled ATP
